The record followed here is patent US20250215029A1 (Recludix Pharma, Inc., priority 2022, published 2025).

Molecules are shown by their SMILES.

This assay deals with T1, pY705-STAT3 in PBMC (Homo sapiens, UniProt P40763).
T1 construct: Cryopreserved Peripheral Blood Mononuclear Cells (PBMC) are from AllCells; host or cells: cryopreserved PBMC
T1 sequence (P40763 whole entry): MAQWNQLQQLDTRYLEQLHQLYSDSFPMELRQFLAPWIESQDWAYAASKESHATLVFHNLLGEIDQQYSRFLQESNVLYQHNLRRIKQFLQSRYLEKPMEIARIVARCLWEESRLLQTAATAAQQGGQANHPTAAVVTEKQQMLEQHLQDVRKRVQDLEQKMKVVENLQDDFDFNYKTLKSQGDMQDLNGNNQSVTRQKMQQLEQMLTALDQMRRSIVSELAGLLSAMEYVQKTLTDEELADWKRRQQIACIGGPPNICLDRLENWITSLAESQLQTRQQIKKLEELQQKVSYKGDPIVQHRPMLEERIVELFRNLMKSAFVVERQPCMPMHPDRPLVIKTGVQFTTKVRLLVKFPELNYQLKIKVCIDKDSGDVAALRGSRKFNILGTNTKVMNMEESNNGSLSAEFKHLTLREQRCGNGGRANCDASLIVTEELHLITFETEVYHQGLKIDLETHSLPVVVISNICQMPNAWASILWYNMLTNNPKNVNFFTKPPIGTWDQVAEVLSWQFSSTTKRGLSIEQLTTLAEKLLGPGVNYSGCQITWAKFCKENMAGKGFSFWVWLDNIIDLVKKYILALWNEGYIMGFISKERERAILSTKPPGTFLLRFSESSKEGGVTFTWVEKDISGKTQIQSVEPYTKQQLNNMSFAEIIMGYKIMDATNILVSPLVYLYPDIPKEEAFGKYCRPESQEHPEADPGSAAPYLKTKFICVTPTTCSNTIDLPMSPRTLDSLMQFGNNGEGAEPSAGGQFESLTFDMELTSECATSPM
The assay can be described thus: MSD-pSTAT-PBMC Assay (pSTAT3, IL-6 stimulated). Type of assay: cell-based. The settings on record: PBMC, compound 3 hrs, then 10 ng/mL IL-6 for 10 min; Table 115; read-out: STAT3. Summed up: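 pY705-STAT3 was detected electrochemiluminescently on total-STAT3 capture plates, using lysates of human PBMCs given compound for 3 h and then IL-6 (10 ng/mL, 10 min). Values were background-subtracted against unstimulated wells and set relative to DMSO. IC50 was fitted with variable slope.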
Take `CCCOC(=O)[C@H](C)NP(=O)(Oc1ccccc1)C(F)c1ccc2sc(C(=O)N[C@H]3CCCC[C@H]4CC[C@@H](C(=O)N[C@H]5CN(C(N)=O)C[C@@H]5F)N4C3=O)cc2c1` (stereo partly drawn) [Compound 958, propyl (((2-(((3S,6S,10aS)-3-(((3S,4S)-1-carbamoyl-4-fluoropyrrolidin-3-yl)carbamoyl)-5-oxodeca-hydropyrrolo [1,2-a]azocin-6-yl)carbamoyl)benzo [b]thiophen-5-yl)fluoromethyl) (phenoxy)phosphoryl)-L-alaninate]: the IC50 is 1000 to 3000 nM.

For `COC1(c2cnccc2C)CN(C(=O)[C@@H]2CC[C@@H]3CCC[C@H](NC(=O)c4cc5cc(C(F)(F)P(=O)(OCCSC(=O)CC(C)C)OCCSC(=O)CC(C)C)ccc5s4)C(=O)N32)C1` [Compound 963, S,S′-((((difluoro(2-(((3S,6S,9aS)-3-(3-methoxy-3-(4-methylpyridin-3-yl)azetidine-1-carbonyl)-5-oxooctahydro-1H-pyrrolo[1,2-a]azepin-6-yl)carbamoyl)benzo [b]thiophen-5-yl)methyl)phosphoryl)bis(oxy))bis(ethane-2,1-diyl)) bis(3-methylbutanethioate)], the IC50 is 100 to 1000 nM.

In the case of `CCCC(=O)SCCOP(=O)(OCCSC(=O)CCC)C(F)(F)c1ccc2sc(C(=O)N[C@H]3CCC[C@H]4CC[C@@H](C(=O)N5CC(c6nncn6C)C5)N4C3=O)cc2c1` [Compound 964, S,S′-((((difluoro(2-(((3S,6S,9aS)-3-(3-(4-methyl-4H-1,2,4-triazol-3-yl)azetidine-1-carbonyl)-5-oxooctahydro-1H-pyrrolo[1,2-a]azepin-6-yl)carbamoyl)benzo [b]thiophen-5-yl)methyl)phosphoryl)bis(oxy))bis(ethane-2,1-diyl)) dibutanethioate], the IC50 lay within 100 to 1000 nM.

Regarding `CC(C)OC(=O)OCOP(=O)(Cc1ccc2[nH]c(C(=O)N[C@H]3CCC[C@H]4CC[C@@H](C(=O)N5CC(c6cccnc6)C5)N4C3=O)cc2c1)OCOC(=O)OC(C)C` [Compound 965, diisopropyl (((((2-(((3S,6S,9aS)-5-oxo-3-(3-(pyridin-3-yl)azetidine-1-carbonyl)octahydro-1H-pyrrolo[1,2-a]azepin-6-yl)carbamoyl)-1H-indol-5-yl)methyl)phosphoryl)bis(oxy))bis (methylene)) bis(carbonate)], the IC50 was in the range of 100 to 1000 nM.

Turning to `CC(C)CC(=O)SCCOP(=O)(OCCSC(=O)CC(C)C)C(F)(F)c1ccc2sc(C(=O)N[C@H]3CCC[C@H]4CC[C@@H](C(=O)N5CC(c6nncn6C)C5)N4C3=O)cc2c1` [Compound 966, S,S′-((((difluoro(2-(((3S,6S,9aS)-3-(3-(4-methyl-4H-1,2,4-triazol-3-yl)azetidine-1-carbonyl)-5-oxooctahydro-1H-pyrrolo[1,2-a]azepin-6-yl)carbamoyl)benzo [b]thiophen-5-yl)methyl)phosphoryl)bis(oxy))bis(ethane-2,1-diyl)) bis(3-methylbutanethioate)], the IC50 is < 100 nM.

For the compound `Cn1cnnc1C1CN(C(=O)[C@@H]2CC[C@@H]3CCC[C@H](NC(=O)c4cc5cc(C(F)(F)P(=O)(OCCSC(=O)C(C)(C)C)OCCSC(=O)C(C)(C)C)ccc5s4)C(=O)N32)C1` [Compound 967, S,S′-((((difluoro(2-(((3S,6S,9aS)-3-(3-(4-methyl-4H-1,2,4-triazol-3-yl)azetidine-1-carbonyl)-5-oxooctahydro-1H-pyrrolo[1,2-a]azepin-6-yl)carbamoyl)benzo [b]thiophen-5-yl)methyl)phosphoryl)bis(oxy))bis(ethane-2,1-diyl)) bis(2,2-dimethyl-propanethioate)], the IC50 was < 100 nM.

In the case of `Cc1ccncc1C1CN(C(=O)[C@@H]2CC[C@@H]3CCC[C@H](NC(=O)c4cc5cc(C(F)(F)P(=O)(OCCSC(=O)C(C)(C)C)OCCSC(=O)C(C)(C)C)ccc5s4)C(=O)N32)C1` [Compound 968, S,S′-((((difluoro(2-(((3S,6S,9aS)-3-(3-(4-methylpyridin-3-yl)azetidine-1-carbonyl)-5-oxooctahydro-1H-pyrrolo[1,2-a]azepin-6-yl)carbamoyl)benzo [b]thiophen-5-yl)methyl)phosphoryl)bis(oxy))bis(ethane-2,1-diyl))bis(2,2-dimethyl-propanethioate)], the IC50 is < 100 nM.

With `CCCCOC(=O)[C@@H]1CCCN1P(=O)(Oc1ccccc1)C(F)(F)c1ccc2sc(C(=O)N[C@H]3CCC[C@H]4CC[C@@H](C(=O)N5CC(c6cccnc6)C5)N4C3=O)cc2c1` (stereo partly drawn) [Compound 969, butyl ((difluoro(2-(((3S,6S,9aS)-5-oxo-3-(3-(pyridin-3-yl)azetidine-1-carbonyl)octahydro-1H-pyrrolo[1,2-a]azepin-6-yl)carbamoyl)benzo [b]thiophen-5-yl)methyl)(phenoxy)phosphoryl)-L-prolinate], the IC50 is > 3000 nM.

For `O=C(SCCOP(=O)(OCCSC(=O)c1ccccc1)C(F)(F)c1ccc2sc(C(=O)N[C@H]3CCC[C@H]4CC[C@@H](C(=O)N5CC(c6cccnc6)C5)N4C3=O)cc2c1)c1ccccc1` [Compound 970, S,S′-((((difluoro(2-(((3S,6S,9aS)-5-oxo-3-(3-(pyridin-3-yl)azetidine-1-carbonyl)octahydro-1H-pyrrolo[1,2-a]azepin-6-yl)carbamoyl)benzo [b]thiophen-5-yl)methyl)-phosphoryl)bis(oxy))bis(ethane-2,1-diyl)) dibenzothioate], the IC50 was < 100 nM.

Consider `CCCCOC(=O)[C@H](C)NP(=O)(Oc1cccc2ccccc12)C(F)(F)c1ccc2sc(C(=O)N[C@H]3CCC[C@H]4CC[C@@H](C(=O)N5CC(c6cccnc6)C5)N4C3=O)cc2c1` (stereo partly drawn) [Compound 971, butyl ((difluoro(2-(((3S,6S,9aS)-5-oxo-3-(3-(pyridin-3-yl)azetidine-1-carbonyl)octahydro-1H-pyrrolo[1,2-a]azepin-6-yl)carbamoyl)benzo [b]thiophen-5-yl)methyl) (naphthalen-1-yloxy)phosphoryl)-L-alaninate], for which the IC50 was 1000 to 3000 nM.

Turning to `CC(C)OC(=O)[C@H](C)NP(=O)(Oc1ccccc1)C(F)c1ccc2sc(C(=O)N[C@H]3CCC[C@H]4CC[C@@H](C(=O)N5CC(c6cnccc6F)C5)N4C3=O)cc2c1` (stereo partly drawn) [Compound 972, isopropyl ((fluoro(2-(((3S,6S,9aS)-3-(3-(4-fluoropyridin-3-yl)azetidine-1-carbonyl)-5-oxooctahydro-1H-pyrrolo[1,2-a]azepin-6-yl)carbamoyl)benzo [b]thiophen-5-yl)methyl) (phenoxy)phosphoryl)-L-alaninate], the IC50 was < 100 nM.

`CCCOC(=O)[C@H](C)NP(=O)(Oc1ccccc1)C(F)c1ccc2sc(C(=O)N[C@H]3CCC[C@H]4CC[C@@H](C(=O)N5CC(c6cnccc6O)C5)N4C3=O)cc2c1` (stereo partly drawn) [Compound 974, propyl ((fluoro(2-(((3S,6S,9aS)-3-(3-(4-hydroxypyridin-3-yl)azetidine-1-carbonyl)-5-oxooctahydro-1H-pyrrolo[1,2-a]azepin-6-yl)carbamoyl)benzo [b]thiophen-5-yl)methyl)(phenoxy)phosphoryl)-L-alaninate]: the IC50 was 100 to 1000 nM.

Regarding `CCCOC(=O)[C@H](C)NP(=O)(Cc1ccc2sc(C(=O)N[C@H]3CCC[C@H]4CC[C@@H](C(=O)N5CC(c6cnccc6O)C5)N4C3=O)cc2c1)Oc1ccccc1` (stereo partly drawn) [Compound 975, propyl (((2-(((3S,6S,9aS)-3-(3-(4-hydroxypyridin-3-yl)azetidine-1-carbonyl)-5-oxooctahydro-1H-pyrrolo[1,2-a]azepin-6-yl)carbamoyl)benzo [b]thiophen-5-yl)methyl)(phenoxy)phosphoryl)-L-alaninate], the IC50 is < 100 nM.

In the case of `CCCOC(=O)[C@H](C)NP(=O)(Cc1ccc2sc(C(=O)N[C@H]3CCC[C@H]4CC[C@@H](C(=O)N5CC(c6c(F)ccnc6C)C5)N4C3=O)cc2c1)Oc1ccccc1` (stereo partly drawn) [Compound 978, propyl (((2-(((3S,6S,9aS)-3-(3-(4-fluoro-2-methylpyridin-3-yl)azetidine-1-carbonyl)-5-oxooctahydro-1H-pyrrolo[1,2-a]azepin-6-yl)carbamoyl)benzo [b]thiophen-5-yl)methyl)(phenoxy)phosphoryl)-L-alaninate], the IC50 lay within 100 to 1000 nM.

For the compound `CCCOC(=O)[C@H](C)NP(=O)(Cc1ccc2sc(C(=O)N[C@H]3CCC[C@H]4CC[C@@H](C(=O)N5CC(c6cn(C)ccc6=O)C5)N4C3=O)cc2c1)Oc1ccccc1` (stereo partly drawn) [Compound 979, propyl (((2-(((3S,6S,9aS)-3-(3-(1-methyl-4-oxo-1,4-dihydropyridin-3-yl)azetidine-1-carbonyl)-5-oxooctahydro-1H-pyrrolo[1,2-a]azepin-6-yl)carbamoyl)benzo [b]thiophen-5-yl)methyl)(phenoxy)phosphoryl)-L-alaninate], the IC50 was > 3000 nM.

For the compound `CCCOC(=O)[C@H](C)NP(=O)(Cc1ccc2sc(C(=O)N[C@H]3CCC[C@H]4CC[C@@H](C(=O)N5CC(c6c(OC)ccnc6F)C5)N4C3=O)cc2c1)Oc1ccccc1` (stereo partly drawn) [Compound 980, propyl (((2-(((3S,6S,9aS)-3-(3-(2-fluoro-4-methoxypyridin-3-yl)azetidine-1-carbonyl)-5-oxooctahydro-1H-pyrrolo[1,2-a]azepin-6-yl)carbamoyl)benzo [b]thiophen-5-yl)methyl)(phenoxy)phosphoryl)-L-alaninate], the IC50 fell in the range of 1000 to 3000 nM.

Consider `C[C@H](NP(=O)(Oc1ccccc1)C(F)c1ccc2sc(C(=O)N[C@H]3CCC[C@H]4CC[C@@H](C(=O)N5CC(c6cnccc6F)C5)N4C3=O)cc2c1)C(=O)OCCC(F)(F)F` (stereo partly drawn) [Compound 983, 3,3,3-trifluoropropyl ((fluoro(2-(((3S,6S,9aS)-3-(3-(4-fluoropyridin-3-yl)azetidine-1-carbonyl)-5-oxooctahydro-1H-pyrrolo[1,2-a]azepin-6-yl)carbamoyl)benzo [b]thiophen-5-yl)methyl)(phenoxy)phosphoryl)-L-alaninate], for which the IC50 was < 100 nM.
